Laboratory results published in patent publication US20230078811A1, “USE OF DISTILLABLE VOLATILE SALT FOR THE PRETREATMENT OF BIOMASS” (The Regents of the University of California, priority 2020, published 2023).

Assay: Distillation efficiency: pretreating solvent left in the solids after pretreatment and distillation
Assay type: physicochemical
Settings: pretreat 100° C. 1 hour; distill 100° C. 1 hour, full vacuum; 40% solid loading; FIG. 4
Procedure: Distillation efficiency is measured using the following procedure: pretreat at 100° C. for 1 hour; distill at 100° C. for 1 hours in full vacuum, 40% solid loading (SL) with ethanolamine, enzyme saccharification (5%, 10%, 20% SL), and 10 mg/g biomass of CTEC/HTEC 9/1 cellulase. Distillation efficiency can be measured by determining the concentration of pretreating solvent in the solids after pretreatment.

removal of the solvent by distillation: about 98.7%
SMILES: NCCO [ethanolamine]
